A word on the IC50: it is the midpoint of a concentration-inhibition curve.

We go through 16 compounds from patent US9499538B2, “Estrogen receptor modulators and uses thereof” (Seragon Pharmaceuticals, Inc., priority 2012, dated 2016).

One experiment has as its target T1, ER-α in MCF-7 cells (Homo sapiens, UniProt P03372).
T1 construct: endogenous in cells; host or cells: MCF-7
T1 sequence (P03372 1-595): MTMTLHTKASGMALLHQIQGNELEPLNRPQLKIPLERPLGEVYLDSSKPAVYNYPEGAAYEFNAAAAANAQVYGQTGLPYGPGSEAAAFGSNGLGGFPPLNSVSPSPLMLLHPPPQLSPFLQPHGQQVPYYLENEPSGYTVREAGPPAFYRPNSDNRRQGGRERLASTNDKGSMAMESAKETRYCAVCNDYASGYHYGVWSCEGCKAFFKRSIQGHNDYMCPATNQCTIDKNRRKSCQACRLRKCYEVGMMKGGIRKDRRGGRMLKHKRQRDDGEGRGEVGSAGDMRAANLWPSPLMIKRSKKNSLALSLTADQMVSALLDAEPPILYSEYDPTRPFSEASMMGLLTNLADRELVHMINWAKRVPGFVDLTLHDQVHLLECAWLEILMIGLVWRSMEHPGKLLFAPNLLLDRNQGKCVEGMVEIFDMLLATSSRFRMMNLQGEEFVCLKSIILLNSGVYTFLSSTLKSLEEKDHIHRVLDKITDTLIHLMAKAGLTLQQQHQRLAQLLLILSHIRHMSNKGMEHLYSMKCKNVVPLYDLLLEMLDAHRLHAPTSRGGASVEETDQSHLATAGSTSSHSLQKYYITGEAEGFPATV
Kind of experiment: Breast Cancer Cell ER-α In Cell Western Assay (SP1). Particulars: 4 or 24 hr post compound addition; for Emax: MCF7, SP1 antibody, read-out: ER-α In Cell Western Assay (SP1) Max Response; for DC50: SP1 antibody, read-out: ER-α In Cell Western Assay (SP1) IC50. It is filed as cell-based. In short, it runs like this:
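MCF-7 cells in charcoal-stripped FBS medium, treated with 11-point semilog dilutions (0.3–0.000003 μM final) for 4 or 24 h. Fixed cells immunostained with SP1 antibody (800 nm) and DRAQ5 DNA (700 nm); ER/DNA ratio expressed as % of untreated cells.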

The subject of another experiment is MCF-7 cells. Kind of experiment: Breast Cancer Cell Viability Assays (MCF-7, CellTiter-Glo). Particulars: 5 days' compound exposure; for IC50: Homo sapiens, MCF7, 120 h. In kind it is cell-based. Summed up:
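MCF-7 cells (320/well, RPMI with 10% FBS) exposed for 5 days to an eleven-point semilog series, 0.3–0.000003 μM final. Viability read by CellTiter-Glo luminescence, expressed as background-corrected percent of untreated cells.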
For orientation: Cellular ATP, detected with luciferase, serves as a proxy for viable cell number.

The structures appear in SMILES notation. A value given as a limit tells only on which side of the number the result lay.

As to `CS(=O)(=O)c1ccccc1/C(=C(\c1ccc(/C=C/C(=O)O)cc1)c1ccc2[nH]nc(F)c2c1)C1CC1` [Example 193, (E)-3-(4-((E)-2-Cyclopropyl-1-(3-fluoro-1H-indazol-5-yl)-2-(2-(methylsulfonyl)phenyl)vinyl)phenyl)acrylic acid], at ER-α in MCF-7 cells, the Emax was no less than 40% and the DC50 is no more than 100 nM. In addition, in the experiment with MCF-7 cells, the “MCF7 Viability Assay Max Response” value was “++ (++ = a single % value ≧ 40%)” and the IC50 was no more than 100 nM.
In the case of `CS(=O)(=O)c1ccccc1/C(=C(\c1ccc(/C=C/C(=O)O)cc1)c1ccc2[nH]nc(F)c2c1)C1CCC1` [Example 194, (E)-3-(4-((E)-2-Cyclobutyl-1-(3-fluoro-1H-indazol-5-yl)-2-(2-(methylsulfonyl)phenyl)vinyl)phenyl)acrylic acid], on ER-α in MCF-7 cells, the Emax was no less than 40% and the DC50 is no more than 100 nM. Also, in the experiment with MCF-7 cells, the “MCF7 Viability Assay Max Response” value is “++ (++ = a single % value ≧ 40%)” and the 50% inhibitory concentration (IC50) was no more than 100 nM.
On to `Cc1cc(S(C)(=O)=O)ccc1/C(=C(\c1ccc(/C=C/C(=O)O)cc1)c1ccc2[nH]nc(F)c2c1)C1CCC1` [Example 195, (E)-3-(4-((E)-2-Cyclobutyl-1-(3-fluoro-1H-indazol-5-yl)-2-(2-methyl-4-(methylsulfonyl)phenyl)vinyl)phenyl)acrylic acid], for which, at ER-α in MCF-7 cells, the Emax is no less than 40% and the DC50 is no more than 100 nM. Also, in the experiment on MCF-7 cells, the “MCF7 Viability Assay Max Response” value is listed as “++ (++ = a single % value ≧ 40%)” and the IC50 is no more than 100 nM.
In the case of `CS(=O)(=O)c1ccc(/C(=C(\c2ccc(/C=C/C(=O)O)cc2)c2ccc3[nH]nc(F)c3c2)C2CCC2)c(Cl)c1` [Example 196, (E)-3-(4-((E)-2-(2-Chloro-4-(methylsulfonyl)phenyl)-2-cyclobutyl-1-(3-fluoro-1H-indazol-5-yl)vinyl)phenyl)acrylic acid], on ER-α in MCF-7 cells, the Emax was no less than 40% and the DC50 was no more than 100 nM. Further, in the experiment on MCF-7 cells, the “MCF7 Viability Assay Max Response” value is recorded as “++ (++ = a single % value ≧ 40%)” and the IC50 was no more than 100 nM.
In the case of `CS(=O)(=O)c1ccccc1/C(=C(\c1ccc(/C=C/C(=O)O)cc1)c1ccc2scnc2c1)C1CCC1` [Example 197, (E)-3-(4-((E)-1-(Benzo[d]thiazol-5-yl)-2-cyclobutyl-2-(2-(methylsulfonyl)phenyl)vinyl)phenyl)acrylic acid], on ER-α in MCF-7 cells, the Emax was no less than 40% and the DC50 is no more than 100 nM. In the experiment with MCF-7 cells, the “MCF7 Viability Assay Max Response” value was “++ (++ = a single % value ≧ 40%)” and the IC50 was no more than 100 nM.
Consider `Cc1cc([S+](C)[O-])ccc1/C(=C(\c1ccc(/C=C/C(=O)O)cc1)c1ccc2[nH]nc(F)c2c1)C1CCC1` (stereo not shown) [Example 198], for which, at ER-α in MCF-7 cells, the Emax is no less than 40% and the DC50 was no more than 100 nM. In the experiment on MCF-7 cells, the “MCF7 Viability Assay Max Response” value is on record as “++ (++ = a single % value ≧ 40%)” and the IC50 was no more than 100 nM.
Turning to `CC/C(=C(/c1ccc(/C=C/C(=O)O)cc1)c1ccc2c(cnn2CCO)c1)c1ccc(F)cc1Cl` [Example 199, (E)-3-(4-((E)-2-(2-Chloro-4-fluorophenyl)-1-(1-(2-hydroxyethyl)-1H-indazol-5-yl)but-1-en-1-yl)phenyl)acrylic acid], at ER-α in MCF-7 cells, the Emax is no less than 40% and the DC50 was no more than 100 nM. In addition, in the experiment on MCF-7 cells, the “MCF7 Viability Assay Max Response” value was “++ (++ = a single % value ≧ 40%)” and the 50% inhibitory concentration (IC50) was no more than 100 nM.
As for `CC/C(=C(/c1ccc(/C=C/C(=O)O)cc1)c1ccc2nn(CCO)cc2c1)c1ccc(F)cc1Cl` [Example 200, (E)-3-(4-((E)-2-(2-Chloro-4-fluorophenyl)-1-(2-(2-hydroxyethyl)-2H-indazol-5-yl)but-1-en-1-yl)phenyl)acrylic acid], on ER-α in MCF-7 cells, the Emax was no less than 40% and the DC50 is no more than 100 nM. In the experiment with MCF-7 cells, the “MCF7 Viability Assay Max Response” value is “++ (++ = a single % value ≧ 40%)” and the IC50 was greater than 100 nM.
For `O=C(O)/C=C/c1ccc(/C(=C(\c2ccccc2)C2CCC2)c2ccc3c(c2)c(F)nn3CCO)cc1` [Example 201, (E)-3-(4-((E)-2-Cyclobutyl-1-(3-fluoro-1-(2-hydroxyethyl)-1H-indazol-5-yl)-2-phenylvinyl)phenyl)acrylic acid], on ER-α in MCF-7 cells, the Emax is no less than 40% and the DC50 is no more than 100 nM. Further, in the experiment with MCF-7 cells, the “MCF7 Viability Assay Max Response” value was “++ (++ = a single % value ≧ 40%)” and the IC50 was greater than 100 nM.
The corresponding values for `O=c1[nH]c(/C=C/c2ccc(/C(=C(\c3ccccc3)C3CCC3)c3ccc4[nH]nc(F)c4c3)cc2)no1` [Example 202, 3-((E)-4-((E)-2-Cyclobutyl-1-(3-fluoro-1H-indazol-5-yl)-2-phenylvinyl)styryl)-1,2,4-oxadiazol-5(4H)-one] are no less than 40%, no more than 100 nM, “++ (++ = a single % value ≧ 40%)” and no more than 100 nM.
For `NNC(=O)/C=C/c1ccc(/C(=C(\c2ccccc2)C2CCC2)c2ccc3[nH]nc(F)c3c2)cc1` [Example 203, (E)-3-(4-((E)-2-Cyclobutyl-1-(3-fluoro-1H-indazol-5-yl)-2-phenylvinyl)phenyl)acrylohydrazide], at ER-α in MCF-7 cells, the Emax was no less than 40% and the DC50 is no more than 100 nM. In the experiment with MCF-7 cells, the “MCF7 Viability Assay Max Response” value is listed as “++ (++ = a single % value ≧ 40%)” and the IC50 is no more than 100 nM.
As to `Fc1n[nH]c2ccc(/C(=C(/c3ccccc3)C3CCC3)c3ccc(/C=C/c4cccnc4)cc3)cc12` [Example 205, 5-((E)-2-Cyclobutyl-2-phenyl-1-(4-((E)-2-(pyridin-3-yl)vinyl)phenyl)vinyl)-3-fluoro-1H-indazole], on ER-α in MCF-7 cells, the Emax is no less than 40% and the DC50 is no more than 100 nM. In the experiment with MCF-7 cells, the “MCF7 Viability Assay Max Response” value is recorded as “+ (+ = a single % value < 40%)” and the IC50 was greater than 100 nM.
Taken in the same sequence, the figures for `Fc1n[nH]c2ccc(/C(=C(/c3ccccc3)C3CCC3)c3ccc(/C=C/c4cn[nH]c4)cc3)cc12` [Example 206, 5-((E)-1-(4-((E)-2-(1H-Pyrazol-4-yl)vinyl)phenyl)-2-cyclobutyl-2-phenylvinyl)-3-fluoro-1H-indazole] were no less than 40%, no more than 100 nM, “+ (+ = a single % value < 40%)” and no more than 100 nM.
The corresponding values for `Fc1n[nH]c2ccc(/C(=C(/c3ccccc3)C3CCC3)c3ccc(/C=C/c4ccn[nH]4)cc3)cc12` [Example 207, 5-((E)-1-(4-((E)-2-(1H-Pyrazol-5-yl)vinyl)phenyl)-2-cyclobutyl-2-phenylvinyl)-3-fluoro-1H-indazole] are no less than 40%, no more than 100 nM, “+ (+ = a single % value < 40%)” and greater than 100 nM.
The corresponding values for `Fc1n[nH]c2ccc(/C(=C(/c3ccccc3)C3CCC3)c3ccc(/C=C/c4nnco4)cc3)cc12` [Example 208, 2-((E)-4-((E)-2-Cyclobutyl-1-(3-fluoro-1H-indazol-5-yl)-2-phenylvinyl)styryl)-1,3,4-oxadiazole] are no less than 40%, no more than 100 nM, “++ (++ = a single % value ≧ 40%)” and no more than 100 nM.
On to `Fc1n[nH]c2ccc(/C(=C(/c3ccccc3)C3CCC3)c3ccc(/C=C/c4ncon4)cc3)cc12` [Example 209, 3-((E)-4-((E)-2-Cyclobutyl-1-(3-fluoro-1H-indazol-5-yl)-2-phenylvinyl)styryl)-1,2,4-oxadiazole], for which, on ER-α in MCF-7 cells, the Emax is no less than 40% and the DC50 was no more than 100 nM. Also, in the experiment on MCF-7 cells, the “MCF7 Viability Assay Max Response” value is recorded as “+ (+ = a single % value < 40%)” and the IC50 is no more than 100 nM.
